For experiment [1], the system named is rat liver. The experiment in a line: IPG release in rat liver following infusion with insulin. It counts as in vivo. The following applies: 2 minutes after insulin infusion.
Experiment [2] concerns Glycogen synthase. The experiment in a line: Glycogen synthase activity in rat fat cells. Particulars: 5 min incubation, 20 μl insulin (25 mU/ml) or 10 μl placenta IPG. In kind it is cell-based. The method, then: Glycogen synthase activity was assayed as follows. Fat cells were prepared from epididymal adipose tissue using 140-150 g rats (Wistar strain). Fat pads from 3 rats were cut into small pieces and incubated in 8 ml of Krebs ringer bicarbonate containing 2% albumin plus 24 mg of collagenase for 25 minutes at 37° C. The isolated cells were filtered and washed in 3×10 ml Krebs ringer phosphate medium containing 30 mg/ml of bovine serum albumin (Fraction v, Sigma), the pH was adjusted to 7.4 with NaOH after addition of albumin. The washed cells were also resuspended in Krebs ringer phosphate (10 ml of medium/g of original tissue).
For measurement of enzyme activities, three incubation vessels were set up, each contained 5 ml cells. There were no additions to the first, the second contained 20 μl insulin (25 mU/ml) and the third 10 μl placenta IPG. […]
The reaction was stopped with 0.5 ml cold buffer (100 mM KF/10 mM EDTA/1 mM benzamidine (4), pH 7.0) and the cells homogenized and transferred to Eppendorf tubes. These were spun at 10,000 g for 15 min and the middle layer collected for enzyme assay all tubes were set up in duplicate and measured in the presence of 0.01 mM glucose 6-phosphate except the maximally activated glycogen synthase tube which contained 7.2 mM glucose 6-phosphate. […] Glycogen synthase activity is expressed as a percentage of the total synthase activity (G6P maximum).

The target of experiment [3] is T1, pyruvate dehydrogenase phosphatase isolated from bovine heart (Bos taurus, UniProt P35816).
T1 construct: pyruvate dehydrogenase phosphatase isolated from bovine heart; from tissue; host or cells: bovine heart
T1 sequence (P35816 72-538): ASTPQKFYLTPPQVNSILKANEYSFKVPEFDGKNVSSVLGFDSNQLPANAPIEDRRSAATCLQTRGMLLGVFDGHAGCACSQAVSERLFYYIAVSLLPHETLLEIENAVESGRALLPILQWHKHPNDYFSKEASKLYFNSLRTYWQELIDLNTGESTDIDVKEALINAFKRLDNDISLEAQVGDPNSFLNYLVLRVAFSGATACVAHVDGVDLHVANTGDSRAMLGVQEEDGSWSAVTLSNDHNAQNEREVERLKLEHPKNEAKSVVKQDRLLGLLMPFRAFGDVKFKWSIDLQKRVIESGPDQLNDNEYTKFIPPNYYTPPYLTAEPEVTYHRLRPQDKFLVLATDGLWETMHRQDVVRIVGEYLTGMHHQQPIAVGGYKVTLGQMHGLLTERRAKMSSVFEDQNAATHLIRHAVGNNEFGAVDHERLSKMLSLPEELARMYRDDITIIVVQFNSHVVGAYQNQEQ
T1 sequence (O46504 32-878 partner limits assumed): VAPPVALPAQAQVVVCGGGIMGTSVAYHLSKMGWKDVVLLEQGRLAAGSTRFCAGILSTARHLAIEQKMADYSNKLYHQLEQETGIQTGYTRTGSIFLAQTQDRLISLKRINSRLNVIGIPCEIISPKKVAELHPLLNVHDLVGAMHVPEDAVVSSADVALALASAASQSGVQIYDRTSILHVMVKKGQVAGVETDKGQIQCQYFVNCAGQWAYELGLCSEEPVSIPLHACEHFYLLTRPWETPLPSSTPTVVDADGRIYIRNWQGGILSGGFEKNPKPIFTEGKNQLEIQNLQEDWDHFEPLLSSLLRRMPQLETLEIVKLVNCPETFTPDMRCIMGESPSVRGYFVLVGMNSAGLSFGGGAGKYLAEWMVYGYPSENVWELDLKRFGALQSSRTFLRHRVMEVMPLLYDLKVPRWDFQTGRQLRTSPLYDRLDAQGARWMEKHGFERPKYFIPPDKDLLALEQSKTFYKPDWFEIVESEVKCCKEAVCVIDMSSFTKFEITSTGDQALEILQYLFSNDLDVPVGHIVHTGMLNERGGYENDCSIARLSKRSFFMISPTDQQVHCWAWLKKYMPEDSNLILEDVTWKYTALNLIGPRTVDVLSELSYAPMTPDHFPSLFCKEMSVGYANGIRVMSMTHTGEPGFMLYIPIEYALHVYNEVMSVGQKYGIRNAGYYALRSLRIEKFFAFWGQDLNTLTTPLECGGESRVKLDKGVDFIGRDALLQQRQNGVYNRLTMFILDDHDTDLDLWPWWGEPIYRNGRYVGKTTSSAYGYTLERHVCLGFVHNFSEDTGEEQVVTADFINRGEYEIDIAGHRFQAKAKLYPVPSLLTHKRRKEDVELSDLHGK
As to the kind of experiment: Stimulation of pyruvate dehydrogenase (PDH) phosphatase. In kind it is biochemical. The method, then:
Pyruvate dehydrogenase complex (PDC) and the PDH phosphatase were prepared and stored at −80° C. until use. The assay for both PDH phosphatases, in the presence of absence of insulin mediator, was based upon the initial rate of activation of inactivated, phosphorylated PDH complex. […] A two stage assay was used to quantitate the phosphatase activity. A sample of inactivated PDC (50 μL) was preincubated at 30° C. with 1 mg/mL fat-free BSA, 10 mM MgCl2, 0.1 mM CaCl2 and […] DTT in 20 mM potassium phosphate buffer at pH 7.0 (total volume 250 μL) for three minutes. At this time, 10 μL of the PDH phosphatase and 10 μL of IPG were added and the incubation continued for a further 2 min. At the end of this time, 200 μL of the mix was removed and added to 100 μL of 300 mM NaF. The activated PDH was determined at the second stage photometrically by measuring the rate of production of NADH. One hundred microliters of the stopped reaction were added to 1 mL of reaction mixture containing 50 mM potassium phosphate buffer at pH 8.0, 2.5 mM β-NAD^+, 0.2 mM TPP, 0.13 mM coenzyme A, 0.32 mM DTT and 2 mM sodium pyruvate. The production of NADH was followed at 340 nm for 5 min.
Three samples of liver P-type used. All were suspended on day of use at the rate of 1 g liver in […] water. All three preparations were tested before and after treatment with dithizone, while the one preparation was also treated with Mn after dithizone to attempt to reactivate it. The reactivation procedure was to preincubate a de-metallized sample with 2.7 mM Mn for 15 min before it was added to the inactivated PDH mix.
The P-1 sample used here was the same as that used in previous experiment although a second tube of that composite sample. The dithizone treated sample was the same as that used previously. For reactivation, the de-medalist sample was pre-incubated for 15 mins with either 2.7 mM Mn, 1.8 mM Zn or 2.7 mM Mn-1.8 mM Zn. All samples tested on normal assay system using 10 μl P′ase and 5 ul of sample.

The mark [4] stands for this setting: reactivation experiment, 10 μl P'ase and 5 ul of sample, 2.7 mM Mn, 1.8 mM Zn, Treated = dithizone.

The results in this text go back to patent publication US20040022782A1, “Cyclitol containing carbohydrates from human tissue which regulate glycogen metabolism” (Rodaris Pharmaceuticals Limited, priority 1996, published 2004).

Turning to insulin, the “increase in PDH phosphatase stimulating activity of rat liver” value in experiment [1] was “two-fold increase in activity”. Also, the “Stimulation as % of G6P Maximum” value in experiment [2] was found to be 6.54%.
For `[Mn+2]` [Mn, manganese], the “effect on P'ase activity” value in experiment [3] (10^−4M Mn (assay no: 3)) is reported as “no effect”. Also, the “PDH phosphatase (activity)” value is “Δ 0.680 OD/min (2)” in experiment [3] (+Mg2+ + Ca2+) and “Δ 0.000 OD/min (6)” in experiment [3] (+Mg2+, no Ca2+). For the same compound, the Units/g in experiment [3] (dithizone experiment, Vol used 5 μl, Treated = dithizone, Mn 2.7 mM) is 0 Units/g. Further, the “% stimulation” value in experiment [3] (dithizone experiment, Vol used 5 μl, liver P-type 1 g liver in 10 μl water, Treated = dithizone, Mn 2.7 mM) is recorded as −11%; in experiment [3] (setting [4]), “+12%”.
As to `[Zn+2]` [Zn], in experiment [3] (setting [4]), the “% stimulation” value is reported as “+122%”.
